Laboratory results: ChEMBL document CHEMBL5046297, “Discovery of a Colon-Targeted Azo Prodrug of Tofacitinib through the Establishment of Colon-Specific Delivery Systems Constructed by 5-ASA-PABA-MAC and 5-ASA-PABA-Diamine for the Treatment of Ulcerative Colitis” (J Med Chem, 2022)

Columns and labels:
[1] = Chemical stability in simulated intestinal fluid assessed as parent compound remaining incubated for 12 hrs by LC-MS/MS analysis; format: ADME, physicochemical; conditions: simulated gi fluid
[2] = Chemical stability in simulated gastric fluid assessed as parent compound remaining incubated for 12 hrs by LC-MS/MS analysis; format: ADME, physicochemical; conditions: simulated gi fluid
[3] = Chemical stability of compound in pH 1.2 HCl buffer at 100 uM incubated for 24 hrs by HPLC analysis; format: physicochemical; conditions: pH 1.2, 24 h
[4] = Chemical stability of compound in pH 4.5 PBS buffer at 100 uM incubated for 24 hrs by HPLC analysis; format: physicochemical; conditions: pH 4.5, 24 h
[5] = Chemical stability of compound in pH 7.4 PBS buffer at 100 uM incubated for 24 hrs by HPLC analysis; format: physicochemical; conditions: pH 7.4, 24 h
[6] = Prodrug conversion in Sprague-Dawley rat colon content suspension assessed as tofacitinib release measured upto 8 hrs by HPLC analysis; format: ADME, tissue-based
[7] = Prodrug conversion in Sprague-Dawley rat assessed as AUC (0 to infinity) of tofacitinib at 15 mg/kg, po measured up to 12 hrs by LC-MS/MS analysis; format: ADME, organism-based; set-up: route oral, dose 15 mg/kg, time <=12; conditions: in vivo
[8] = Prodrug conversion in Sprague-Dawley rat assessed as Cmax of tofacitinib at 15 mg/kg, po measured up to 12 hrs by LC-MS/MS analysis; format: ADME, organism-based; set-up: route oral, dose 15 mg/kg, time <=12; conditions: in vivo
[9] = Prodrug conversion in Sprague-Dawley rat assessed as Tmax of tofacitinib at 15 mg/kg, po measured up to 12 hrs by LC-MS/MS analysis; format: ADME, organism-based; conditions: in vivo
[10] = Prodrug conversion in Sprague-Dawley rat assessed as elimination half life of tofacitinib at 15 mg/kg, po measured up to 12 hrs by LC-MS/MS analysis; format: ADME, organism-based; conditions: in vivo
[11] = Prodrug conversion in BALB/c mouse plasma assessed as tofacitinib AUC(0 to 12 hrs) at 15 mg/kg, po measured upto 12 hrs by LC-MS/MS analysis; format: ADME, organism-based; set-up: route oral, dose 15 mg/kg, time <=12; conditions: in vivo
[12] = Prodrug conversion in BALB/c mouse duodenum assessed as tofacitinib AUC(0 to 12 hrs) at 15 mg/kg, po measured upto 12 hrs by LC-MS/MS analysis; format: ADME, organism-based; set-up: route oral, dose 15 mg/kg, time <=12; conditions: in vivo
[13] = Prodrug conversion in BALB/c mouse jejunum assessed as tofacitinib AUC(0 to 12 hrs) at 15 mg/kg, po measured upto 12 hrs by LC-MS/MS analysis; format: ADME, organism-based; set-up: route oral, dose 15 mg/kg, time <=12; conditions: in vivo
[14] = Prodrug conversion in BALB/c mouse ileum assessed as tofacitinib AUC(0 to 12 hrs) at 15 mg/kg, po measured upto 12 hrs by LC-MS/MS analysis; format: ADME, organism-based; set-up: route oral, dose 15 mg/kg, time <=12; conditions: in vivo
[15] = Prodrug conversion in BALB/c mouse colon assessed as tofacitinib AUC(0 to 12 hrs) at 15 mg/kg, po measured upto 12 hrs by LC-MS/MS analysis; format: ADME, organism-based; set-up: route oral, dose 15 mg/kg, time <=12; conditions: in vivo

| SMILES | Stability [1] | Stability [2] | Stability [3] | Stability [4] | Stability [5] | Drug metabolism [6] | AUC [7] | Cmax [8] | Tmax [9] | beta t1/2 [10] | AUC [11] | AUC [12] | AUC [13] | AUC [14] | AUC [15] |
| --- | --- | --- | --- | --- | --- | --- | --- | --- | --- | --- | --- | --- | --- | --- | --- |
| C[C@@H]1CCN(C(=O)CC#N)C[C@@H]1N(C)c1ncnc2c1ccn2C(=O)N(C)CCN(C)C(=O)OCc1ccc(/N=N/c2ccc(O)c(C(=O)O)c2)c(Cl)c1 | Stable | Stable | Stable | Stable | Stable | 2.93 mmol/L/h | – | – | – | – | – | – | – | – | – |
| C[C@@H]1CCN(C(=O)CC#N)C[C@@H]1N(C)c1ncnc2c1ccn2CNC(=O)OCc1ccc(/N=N/c2ccc(O)c(C(=O)O)c2)cc1 | Stable | Stable | Stable | Stable | Stable | 2.87 mmol/L/h | – | – | – | – | – | – | – | – | – |
| Cc1cc(COC(=O)N(C)CCN(C)C(=O)n2ccc3c(N(C)[C@H]4CN(C(=O)CC#N)CC[C@H]4C)ncnc32)ccc1/N=N/c1ccc(O)c(C(=O)O)c1 | Stable | Stable | Stable | Stable | Stable | 1.6 mmol/L/h | – | – | – | – | – | – | – | – | – |
| C[C@@H]1CCN(C(=O)CC#N)C[C@@H]1N(C)c1ncnc2[nH]ccc12.O=C(O)CC(O)(CC(=O)O)C(=O)O [TOFACITINIB CITRATE] | – | – | – | – | – | – | 70.66 µM·h | 54.9 µM | 0.42 h | 3.94 h | 7.1 µM·h | 67 µM·h | 43 µM·h | 50.3 µM·h | 167 µM·h |
